Source: US20260374750A1, “LIGANDS SPECIFICALLY TARGETING VESICULAR GLUTAMATE TRANSPORTERS FOR SUPER-RESOLUTION IMAGING” (SORBONNE UNIVERSITÉ, priority 2021, published 2026)
Read-outs that look alike come from different tables or passages of the source.

What was measured:
[1] = reference fluorophore, in ethanol; cited from earlier work
[2] = system: VGLUT3 (BON VGLUT3 cells); experiment: Confocal fluorescence labeling of BON cells expressing VGLUT3; format: cell-based, human (BON cells); details: for fluorescence intensity in BON VGLUT3 cells relative to BON WT cells / labeling in cytoplasm of BON VGLUT3 cells: 1 h; for fluorescence intensity in BON VGLUT3 cells relative to BON WT cells / labeling in cytoplasm of BON VGLUT3 cells / intensity of labeling in BON VGLUT3 cells relative to BON WT cells: 37 °C; for effect of LSP5 pretreatment on fluorescence intensity in BON VGLUT3 cells: pretreatment with LSP5-2157; for intensity of labeling in BON VGLUT3 cells relative to BON WT cells: FIG. 3, 20 minutes
Protocol: A “BON” cell line describes cells derived from human pancreatic carcinoma; the article by Ramet L. et al., published in J Neurosci, 2017, 37 (15), 4181-4199, describes such cells and the use thereof for the characterization of VGLUT type transporters.
(§1) The experiments are carried out with a BON cell line stably expressing VGLUT3 or a fluorescent VGLUT2 “VGLUT2-venus”. Wild non-transfected BON cells (“wild-type”, BON WT) are used as controls. The cells are cultured in F-12 Nutrient Mixture Ham medium (21765-029, Thermo Fisher Scientific) and Dulbecco's Modified Eagle's Medium High Glucose (DMEM HG, 31966021, Thermo Fisher Scientific; volume/volume), supplemented with 10% fetal calf serum (FCS, 12483012, Thermo Fisher Scientific) and 1% (volume/volume) of a mixture of streptomycin (10 mg/mL)/penicillin (10,000 U/mL) and […] an incubator at 37 °C under 5% CO2. For the transfected clones, the medium is enriched with 0.8 mg/mL Geneticin G418 sulfate (G418, 10131027, Thermo Fisher Scientific).
The cells are cultured in 25 cm^2 culture flasks. When the cells are at confluence, they are rinsed with sterile PBS 1× after aspiration of the medium, then incubated for five minutes at 37 °C with a solution of trypsin-EDTA (0.05% trypsin EDTA, 25300054, Thermo Fisher Scientific. The cell layer is then detached and the cells dissociated from each other. After addition of medium, the cell suspension is centrifuged for 5 minutes at 300 g, then the pellet is diluted 1:3 in order to be recultivated.
(§2) Two days before each experiment, after trypsinization of the cells from a culture flask, the cell suspension is seeded at 150,000 cells/well, in twelve-well plates on glass coverslips 19 mm in diameter. For observation, these coverslips are placed in a chamber allowing a hermetic fixation of the coverslip in the observation medium, Fluorobrite™ DMEM (A1896701, Thermo Fisher Scientific), a transparent medium.
(§3) Before each observation, the cells are incubated at 37 °C in the presence of fluorescent ligands, at previously determined concentrations. The effect of a pretreatment of BON cells with a specific inhibitor of VGLUTs, the substance LSP5-2157, is also performed to study the inhibitory effect of this substance on the labeling of BON cells with the fluorescent ligands of the invention.
(§4) The cells are observed in real time under an inverted confocal microscope, with a 63× objective in a room thermostated at 37 °C (Leica TCS SP5; cellular imaging platform of the Paris-Seine Institute of Biology). The studied fluorescent molecules emit in the blue, the cells are excited at 405 nm.
(§5) FIG. 2 illustrates the observation and quantification of the BON cells under a confocal microscope, and the inhibition of the fluorescent signal by a pretreatment of the cells with the specific VGLUT inhibitor, LSP5-2157. […] The images are presented in negative. D,H,L and P: Quantification of the treatment effect.
Different acquisitions of cells are carried out using a confocal microscope. […] Statistical analysis: Kruskal-Wallis test followed by Dunn's post-hoc test, NS: non-significant, *p<0.01; ***p<0.0001.
FIG. 3 illustrates the observation and quantification of BON cells using a confocal microscope. Wild-type cells (BON WT) or VGLUT3-expressing cells (BON VGLUT3) are incubated with different fluorescent ligands referenced: L8, YL151, D04, C07, C05, B09, G02, F11. After treatment with fluorescent ligands for 20 minutes at 37 °C, a fluorescent labeling is visible in BON cells. The effect of the treatment is analyzed by quantifying the fluorescence intensity in each cell type. […] Statistical analysis: Mann Whitney test, NS: non-significant, **p=0.0042; ***p<0.0001.

[3] = Fluorimetry: absorption and emission spectra, Stokes shift, molar absorption coefficient, quantum efficiency; format: physicochemical; parameters: λmax abs / λmax em: unit not given here; key to Stokes shift: λmaxem − λmaxabs (emission peak minus absorption peak); details: for Stokes shift: λmaxem-λmaxabs; for ε (molar absorption coefficient) / φ (quantum efficiency): coumarin-343 as reference
Protocol: The physicochemical properties of each ligand were determined thanks to fluorimetry. For each compound, a dilution range was performed and measurements were taken at 1 mM, 316 μM, 100 μM, 31.6 μM, 10 μM, 3.16 μM and 1μ. In 96-well fluorescence microplates, the absorbance and emission spectra of the ligands could be determined at each concentration thanks to a plate spectrophotometer (Tecan). The absorbance spectra are first measured for each compound so as to determine the maximum absorption wavelength (λmaxabs). The fluorescence, or emission, spectra are then determined after excitation of each compound at its λmaxabs, thus allowing obtaining the maximum fluorescence wavelength (λmaxem). Different parameters specific to each of the compounds were determined: • The Stokes shift: it corresponds to the difference between the peak of the absorption spectrum and the peak of the fluorescence spectrum, i.e.: λmaxem-λmaxabs • The molar absorption coefficient (ε): it reflects the capacity of the solutions to absorb light and is determined by the formula ε=A/(C.I)(A: optical density at λmaxabs, C: concentration of the compound, I: constant corresponding to the length of the optical path). ε is expressed in L·cm^−1·mol^−1. • The quantum efficiency (Φ): it represents the ratio of the number of photons emitted to the number of photons absorbed by the compound, i.e. the “probability” for an excited molecule to emit a photon. It takes a value between 0 and 1, 0 corresponding to a non-fluorescent molecule and 1 meaning that there is no de-excitation. Its value is determined thanks to the following formula where Abs: optical density at λmaxabs, AUC: area under the curve of the fluorescence spectrum, n: refractive index of the medium. In this formula, “m” refers to the studied molecule, and “r” to a reference fluorophore.
[formula] • of the fluorescence spectrum, n: refractive index of the medium). In this formula, “m” refers to the studied molecule, and “r” to a reference fluorophore.
The determination of ε and Φ requires the use of a reference fluorescent molecule for which these two parameters are known. Because of its coumarin-type fluorescent pattern, therefore close to those of the studied compounds, coumarin-343 (ε=44300 L·cm−1·mol−1 and Φ=0.63 in ethanol) was used as reference fluorophore. These two parameters were recalculated in the compound dilution medium (DMSO), and were used as a reference in the calculation of ε and Φ for each ligand.
In order to study the effect of a pH variation on the fluorescence intensity of the compounds, the measurements of the absorption and emission spectra were carried out in three different dilution media: • DMSO: pure dimethyl sulfoxide • Phosphate buffer pH 7.2 (0.2 M) • Phosphate buffer pH 5.5 (0.2 M)
FIG. 1 illustrates the absorption and emission spectra of the compound referenced L8, a carboxylic acid from the quinoline family. This is an example of the study carried out on each of the studied fluorophores. The graphic values determined thanks to these spectra are the λmaxabs, the λmaxem and the Stokes shift in each medium. […] The most diluted wells are preferred to see the emission peak of the compound.
The results which are obtained graphically thanks to the excitation and emission spectra and by calculation via the properties of coumarin 343 are grouped in Table 2 below.

BON WT cells = experiment: Confocal fluorescence labeling of wild-type BON cells; format: cell-based, human; details: FIG. 2
Protocol: as §1, §2, §3, §4, §5

[4] = pH 7 (phosphate buffer pH 7.2, 0.2 M)
[5] = phosphate buffer pH 5.5 (0.2 M)

SMILES	λmax abs ([3]; DMSO)	λmax em ([3]; DMSO)	Stokes shift ([3]; DMSO)	ε (molar absorption coefficient) ([3]; DMSO) [L/cm/mol]	φ (quantum efficiency) ([3]; DMSO)	Stokes shift ([3]; pH 5.5)	λmax abs [3, 4]	λmax em [3, 4]	Stokes shift ([3]; pH 7)	λmax abs [3, 5]	λmax em [3, 5]	labeling in cytoplasm of BON WT cells (BON WT cells)	fluorescence intensity in BON VGLUT3 cells relative to BON WT cells ([2]; FIG. 2)	labeling in cytoplasm of BON VGLUT3 cells ([2]; FIG. 2)	effect of LSP5 pretreatment on fluorescence intensity in BON VGLUT3 cells ([2]; FIG. 2)	intensity of labeling in BON VGLUT3 cells relative to BON WT cells [2]	further results
O=C(O)c1cc2cc3c4c(c2oc1=O)CCCN4CCC3 [coumarin-343]	–	–	–	–	–	–	–	–	–	–	–	–	–	–	–	–	Φ (quantum efficiency) [1]: 0.63; ε (molar absorption coefficient) [1]: 44300 L/cm/mol
Cc1cc(-c2ccc(/N=N/c3c(S(=O)(=O)O)cc4cc(S(=O)(=O)O)cc(N)c4c3O)c(C)c2)ccc1/N=N/c1c(S(=O)(=O)O)cc2cc(S(=O)(=O)O)cc(N)c2c1O [trypan blue, reference compound]	–	–	–	–	–	–	–	–	–	–	–	–	–	–	–	–	block of binding of novel ligands by reference inhibitor [2]: block the binding of novel ligands
Nc1cc(S(=O)(=O)O)cc2cc(S(=O)(=O)O)c(/N=N/c3ccc(-c4ccc(/N=N/c5c(S(=O)(=O)O)cc6cc(S(=O)(=O)O)cc(N)c6c5O)cc4)cc3)c(O)c12 [LSP5-2157, reference compound]	–	–	–	–	–	–	–	–	–	–	–	–	–	–	–	–	inhibition of fluorescent labeling by pre-incubation with VGLUT inhibitor ([2]; FIG. 2, against labeling by fluorescent ligands): significantly reduces the fluorescent labeling; displacement of ligand binding in cell culture ([2]; reference VGLUT inhibitor): capable of displacing the ligand binding in cell culture

Continued, in another order:

λmax abs ([3]; DMSO)	λmax em ([3]; DMSO)	Stokes shift ([3]; DMSO)	ε (molar absorption coefficient) ([3]; DMSO) [L/cm/mol]	φ (quantum efficiency) ([3]; DMSO)	Stokes shift ([3]; pH 5.5)	λmax abs [3, 4]	λmax em [3, 4]	Stokes shift ([3]; pH 7)	λmax abs [3, 5]	λmax em [3, 5]	SMILES	labeling in cytoplasm of BON WT cells (BON WT cells)	fluorescence intensity in BON VGLUT3 cells relative to BON WT cells ([2]; FIG. 2)	labeling in cytoplasm of BON VGLUT3 cells ([2]; FIG. 2)	effect of LSP5 pretreatment on fluorescence intensity in BON VGLUT3 cells ([2]; FIG. 2)	intensity of labeling in BON VGLUT3 cells relative to BON WT cells [2]	further results
335	410-430	75	64913.8	0.05	50	365	400	35	330	380	CCOC(=O)c1cc2cc(-n3cc(-c4ccc(-c5ccc(N)cc5)cc4)nn3)c(OC)cc2oc1=O [C07, Ethyl 6-(4-(4′-amino-[1,1′-biphenyl]-4-yl)-1H-1,2,3-triazol-1-yl)-7-methoxy-2-oxo-2H-chromene-3-carboxylate]	a weak and homogeneous labeling is detected	significantly increases	a punctiform labeling appears	do not significantly differ	increases significantly	–
360	420-570	60	25747.1	0.11	85	365	440	75	365	450	CCOC(=O)c1cc(C(=O)OCC)c2cc(-c3ccc(-c4ccccc4)cc3)ccc2n1 [YL151, Diethyl 6-(biphenyl-4-yl) quinoline-2,4-dicarboxylate]	–	–	–	–	increases significantly	–
320	407	87	48740.9	0.1	47	365	412	47	365	412	CCOC(=O)c1cc2cc(-n3cc(-c4ccc(-c5ccc(N)cc5)cc4)nn3)ccc2oc1=O [B09, Ethyl-6-(4-(4′-amino-[1,1′-biphenyl]-4-yl)-1H-1,2,3-triazol-1-yl)-2-oxo-2H-chromene-3-carboxylate]	a weak and homogeneous labeling is detected	significantly increases	a punctiform labeling appears	decreases the fluorescence intensity	increases significantly	–
